According to patent US8084479B2, “Thiazole compounds and methods of use” (Amgen Inc., priority 2006, dated 2011):

Biological target: PKBα (Homo sapiens, UniProt P31749)
Assay: PKB kinase assay (P33-labeled ATP, peptide substrate, filter plate)
Assay type: biochemical
Conditions: PKBα enzyme (full length or kinase domain with pleckstrin domain deleted)
Description: The kinase assay for evaluating PKB activity comprises active PKB enzymes, a PKB specific substrate, and P^33-labeled ATP. […] The phosphorylated substrate was captured by a phosphocellulose membrane filter plate (MLLIPORE) and measured by a Wallac Microbeta liquid scintillation counter (Perkin Elmer).

Chain of PKBα (P31749 118-480 limits assumed): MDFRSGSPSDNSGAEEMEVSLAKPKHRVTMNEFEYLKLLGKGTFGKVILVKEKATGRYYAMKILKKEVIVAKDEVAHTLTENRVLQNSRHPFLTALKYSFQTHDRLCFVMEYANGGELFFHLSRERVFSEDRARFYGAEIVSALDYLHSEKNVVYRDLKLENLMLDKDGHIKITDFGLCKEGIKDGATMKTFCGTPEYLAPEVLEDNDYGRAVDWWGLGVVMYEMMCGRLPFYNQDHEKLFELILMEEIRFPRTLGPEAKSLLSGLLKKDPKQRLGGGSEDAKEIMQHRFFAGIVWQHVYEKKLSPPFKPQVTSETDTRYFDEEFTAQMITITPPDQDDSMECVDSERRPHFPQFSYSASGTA

Row | IC50 [nM] | SMILES
1 | 50 to 1000 | N[C@H](CNc1nc(-c2ccccc2)c(-c2ccc3cnccc3c2)s1)Cc1ccc(C(F)(F)F)cc1 [Example 9, N—((S)-2-amino-3-(4-(trifluoromethyl)phenyl)propyl)-5-(isoquinolin-6-yl)-4-phenylthiazol-2-amine]
2 | < 50 | C[C@@H](Nc1ncc(-c2ccc3c(c2)CC(=O)N3)s1)[C@@H](N)Cc1ccc(C(F)(F)F)cc1 [Example 229, 5-(2-((2R,3S)-3-amino-4-(4-(trifluoromethyl)phenyl)butan-2-ylamino)thiazol-5-yl)indolin-2-one]
3 | < 50 | Cn1c(=O)[nH]c2ccc(-c3cnc(NC[C@@H](N)Cc4ccc(C(F)(F)F)c(F)c4)s3)cc21 [Example 184, 6-(2-((S)-2-amino-3-(3-fluoro-4-(trifluoromethyl)phenyl)propylamino)thiazol-5-yl)-1-methyl-1H-benzo[d]imidazol-2(3H)-one]
4 | 50 to 1000 | N[C@H](CNc1nc(C(F)(F)CO)c(-c2ccc3cnccc3c2)s1)Cc1ccc(C(F)(F)F)cc1 [Example 134, 2-(2-((S)-2-Amino-3-(4-(trifluoromethyl)phenyl)-propylamino)-5-(isoquinolin-6-yl)thiazol-4-yl)-2,2-difluoroethanol]
5 | < 50 | N[C@H](CNc1ncc(-c2ccc3c(c2)CC(=O)N3)s1)Cc1ccc(Cl)cc1 [Example 54, 5-(2-((S)-2-Amino-3-(4-chlorophenyl)propylamino)thiazol-5-yl)indolin-2-one]
6 | < 50 | COCc1nc(NC[C@@H](N)Cc2ccc(C(F)(F)F)cc2)sc1-c1nc2ccncc2s1 [Example 22, N—((S)-2-amino-3-(4-(trifluoromethyl)phenyl)propyl)-4-(methoxymethyl)-5-(thiazolo[5,4-c]pyridin-2-yl)thiazol-2-amine]
7 | < 50 | N[C@H](CNc1ncc(-c2ccc3[nH]c(=O)sc3c2)s1)Cc1ccc(C(F)(F)F)cc1 [Example 43, 6-(2-((S)-2-amino-3-(4-(trifluoromethyl)phenyl)propylamino)thiazol-5-yl)benzo[d]thiazol-2(3H)-one]
8 | 50 to 1000 | N[C@H](CNc1nc(-c2ccc(F)cc2)c(-c2ccc3cnccc3c2)s1)Cc1ccc(C(F)(F)F)cc1 [Example 102, N—((S)-2-Amino-3-(4-(trifluoromethyl)phenyl)propyl)-4-(4-fluorophenyl)-5-(isoquinolin-6-yl)thiazol-2-amine]
9 | < 50 | NC(CNc1ncc(-c2ccc3c(c2)CC(=O)N3)s1)Cc1ccc(C(F)(F)F)c(F)c1 (centres unmarked) [Example 179, 5-(2-(-2-amino-3-(3-fluoro-4-(trifluoromethyl)phenyl)propylamino)thiazol-5-yl)indolin-2-one]
10 | 50 to 1000 | Cc1n[nH]c2ccc(-c3cnc(NC[C@@H](N)Cc4c[nH]c5ccccc45)s3)cc12 [Example 2, N—((S)-2-amino-3-(1H-indol-3-yl)propyl)-5-(3-methyl-1H-indazol-5-yl)thiazol-2-amine]
11 | 1000 to 10000 | Cn1c(=O)[nH]c2ccc(-c3sc(NC[C@@H](N)Cc4ccc(C(F)(F)F)cc4)nc3-c3ccccc3F)cc21 [Example 249, 6-(2-((S)-2-amino-3-(4-(trifluoromethyl)phenyl)propylamino)-4-(2-fluorophenyl)thiazol-5-yl)-1-methyl-1H-benzo[d]imidazol-2(3H)-one]
12 | 50 to 1000 | COc1ccc(CC(N)CNc2ncc(-c3ccc4c(c3)CC(=O)N4)s2)cc1F (centres unmarked) [Example 130, 5-(2-(2-Amino-3-(3-fluoro-4-methoxyphenyl)propylamino)thiazol-5-yl)indolin-2-one]
13 | < 50 | N[C@H](CNc1ncc(-c2ccc3[nH]c(=O)oc3c2)s1)Cc1ccc2ccccc2c1 [Example 204, 6-(2-((S)-2-amino-3-(naphthalen-2-yl)propylamino)thiazol-5-yl)benzo[d]oxazol-2(3H)-one]
14 | 50 to 1000 | N[C@H](CNc1ncc(-c2ccc3[nH]c(=O)oc3c2)s1)Cc1cccc(C(F)(F)F)c1 [Example 46, 6-(2-((S)-2-amino-3-(3-(trifluoromethyl)phenyl)propylamino)thiazol-5-yl)benzo[d]oxazol-2(3H)-one]
15 | < 50 | CNc1cc2cc(-c3cnc(NC[C@@H](N)Cc4ccc(C(F)(F)F)cc4)s3)ccc2cn1 [Example 138, 6-(2-((S)-2-amino-3-(4-(trifluoromethyl)phenyl)propylamino)thiazol-5-yl)-N-methylisoquinolin-3-amine]
16 | < 50 | N[C@H](CNc1nc(C2CCCO2)c(-c2ccc3cnccc3c2)s1)Cc1ccc(C(F)(F)F)cc1 (stereo partly drawn) [Example 198, N—((S)-2-Amino-3-(4-(trifluoromethyl)phenyl)propyl)-5-(isoquinolin-6-yl)-4-(tetrahydrofuran-2-yl)thiazol-2-amine]
17 | < 50 | Cc1n[nH]c2ccc(-c3sc(NC[C@@H](N)Cc4ccc(C(F)(F)F)cc4)nc3CO)cc12 [Example 11, (2-((S)-2-amino-3-(4-(trifluoromethyl)phenyl)propylamino)-5-(3-methyl-1H-indazol-5-yl)thiazol-4-yl)methanol]
18 | 1000 to 10000 | N[C@@H](Cc1cccc(C(F)(F)F)c1)CN(Cc1ccccc1)c1ncc(-c2nc3ccncc3s2)s1 [Example 29, N—((S)-2-amino-3-(3-(trifluoromethyl)phenyl)propyl)-N-benzyl-5-(thiazolo[5,4-c]pyridin-2-yl)thiazol-2-amine]

Row | IC50 [nM] | SMILES
19 | < 50 | COCc1nc(NC[C@@H](N)Cc2ccc(C(F)(F)F)cc2)sc1-c1ccc2cnccc2n1 [Example 71, N—((S)-2-amino-3-(4-(trifluoromethyl)phenyl)propyl)-4-(methoxymethyl)-5-(1,6-naphthyridin-2-yl)thiazol-2-amine]
20 | < 50 | COCc1nc(NC[C@@H](N)Cc2ccc(C(F)(F)F)cc2)sc1-c1ccc2cnccc2c1 [Example 13, N—((S)-2-amino-3-(4-(trifluoromethyl)phenyl)propyl)-5-(isoquinolin-6-yl)-4-(methoxymethyl)thiazol-2-amine]
21 | 1000 to 10000 | N[C@H](CNc1ncc(-c2ccc3c(c2)CNC3=O)s1)Cc1ccc(Cl)s1 [Example 239, 3,5-(2-((S)-2-amino-3-(5-chlorothiophen-2-yl)propylamino)thiazol-5-yl)isoindolin-1-one]
22 | 50 to 1000 | N[C@H](CNc1ncc(-c2ccc3[nH]c(=O)oc3c2)s1)Cc1ccc(Cl)s1 [Example 213, 6-(2-((S)-2-amino-3-(5-chlorothiophen-2-yl)propylamino)thiazol-5-yl)benzo[d]oxazol-2(3H)-one]
23 | < 50 | NC(CNc1ncc(-c2ccc3[nH]ncc3c2)s1)Cc1ccc(C(F)(F)F)c(F)c1F (centres unmarked) [Example 190, N-(2-amino-3-(2,3-difluoro-4-(trifluoromethyl)phenyl)propyl)-5-(1H-indazol-5-yl)thiazol-2-amine]
24 | 50 to 1000 | COCC#Cc1nc(NC[C@@H](N)Cc2ccc(C(F)(F)F)cc2)sc1-c1ccc2cnccc2c1 [Example 146, N—((S)-2-amino-3-(4-(trifluoromethyl)phenyl)propyl)-5-(isoquinolin-6-yl)-4-(3-methoxyprop-1-ynyl)thiazol-2-amine]
25 | < 50 | C/C=C/[C@@H](c1ccc(C(F)(F)F)cc1)[C@H](N)CNc1ncc(-c2ccc3c(c2)CC(=O)N3)s1 [Example 155, 5-(2-((2S,3S,E)-2-amino-3-(4-(trifluoromethyl)phenyl)hex-4-enylamino)thiazol-5-yl)indolin-2-one]
26 | < 50 | COCc1nc(NC[C@@H](N)Cc2ccc(Cl)c(Cl)c2)sc1-c1nc2ccncc2s1 [Example 96, N—((S)-2-Amino-3-(3,4-dichlorophenyl)propyl)-4-(methoxymethyl)-5-(thiazolo[5,4-c]pyridin-2-yl)thiazol-2-amine]
27 | 50 to 1000 | N[C@H](CNc1ncc(-c2ccc3[nH]c(=O)oc3c2)s1)Cc1ccc(F)c(F)c1 [Example 127, 6-(2-((S)-2-Amino-3-(3,4-difluorophenyl)propylamino)thiazol-5-yl)benzo[d]oxazol-2(3H)-one]
28 | 50 to 1000 | N[C@@H](Cc1ccc(C(F)(F)F)cc1)CN(Cc1ccccc1)c1ncc(-c2nc3ccncc3s2)s1 [Example 30, N—((S)-2-amino-3-(4-(trifluoromethyl)phenyl)propyl)-N-benzyl-5-(thiazolo[5,4-c]pyridin-2-yl)thiazol-2-amine]
29 | 50 to 1000 | N[C@H](CNc1nc(C2CCCO2)c(-c2ccc3cnccc3c2)s1)Cc1ccc(Cl)cc1 (stereo partly drawn) [Example 196, N—((S)-2-amino-3-(4-chlorophenyl)propyl)-5-(isoquinolin-6-yl)-4-(tetrahydrofuran-2-yl)thiazol-2-amine]
30 | 1000 to 10000 | N[C@H](CNc1ncc(-c2ccc3cnccc3c2)s1)Cc1ccc(NC(=O)OCc2ccccc2)cc1 [Example 223, Benzyl 4-((S)-2-amino-3-(5-(isoquinolin-6-yl)thiazol-2-ylamino)propyl)phenylcarbamate]
31 | 50 to 1000 | N[C@H](CNc1ncc(-c2cc3c(cc2F)NC(=O)C3)s1)Cc1ccc(C(F)(F)F)nc1 [Example 215, 5-(2-((S)-2-amino-3-(6-(trifluoromethyl)pyridin-3-yl)propylamino)thiazol-5-yl)-6-fluoroindolin-2-one]
32 | < 50 | N[C@H](CNc1nc(-c2ccccc2F)c(-c2ccc3cnccc3c2)s1)Cc1ccc(C(F)(F)F)cc1 [Example 105, N—((S)-2-Amino-3-(4-(trifluoromethyl)phenyl)propyl)-4-(2-fluorophenyl)-5-(isoquinolin-6-yl)thiazol-2-amine]
33 | < 50 | N[C@H](CNc1ncc(-c2ccc3[nH]c(=O)oc3c2)s1)Cc1ccc(C(F)(F)F)cc1 [Example 40, 6-(2-((S)-2-amino-3-(4-(trifluoromethyl)phenyl)propylamino)thiazol-5-yl)benzo[d]oxazol-2(3H)-one]
34 | 50 to 1000 | C[C@H](Nc1ncc(-c2ccc3cnccc3c2)s1)[C@@H](N)Cc1ccc(C(F)(F)F)cc1 [Example 235, N-((2S,3S)-3-amino-4-(4-(trifluoromethyl)phenyl)butan-2-yl)-5-(isoquinolin-6-yl)thiazol-2-amine]
35 | 50 to 1000 | N[C@H](CNc1ncc(-c2ccc3c(c2)CNC3=O)s1)Cc1ccc(C(F)(F)F)cc1 [Example 240, 5-(2-((S)-2-amino-3-(4-(trifluoromethyl)phenyl)propylamino)thiazol-5-yl)isoindolin-1-one]
